Reference: patent publication US11253471B2, “Rectal mucosal administration preparation of Pulsatilla chinensis saponin B4 and preparation method therefor” (priority 2018, dated 2022)

Key:
[1] = system: gentamicin-induced acute kidney injury in rats; experiment: Gentamicin-induced acute kidney injury in rats: serum indexes and urinary protein; format: in vivo, SD rats; conditions: for Urinary Protein, 5th day of administration / Urinary Protein, 6th day of administration / Urinary Protein, 7th day of administration / BUN / CREA / TP: by gavage; for BUN / CREA / TP: serum, 7 days
Excerpt: Acute renal failure induced by gentamicin was mainly manifested in the increase of creatinine and urea nitrogen, but the mechanism of gentamicin induced nephrotoxicity was still unclear. In this experiment, two kinds of rectal mucosa administration preparations of Pulsatilla chinensis saponin B4 according to the present invention were infused by anus to observe the preventive and therapeutic effects of tested drugs on gentamicin-induced ARF in rats, and compared with oral (gavage) administration of Pulsatilla chinensis saponin B4.
(§1) Dexamethasone solution: 4 tablets of dexamethasone were ground and dissolved in 100 ml double distilled water, and then diluted to 0.03 mg/ml.
B4 raw powder solution: 2000 mg of B4 raw powder was weighed, ground, and dissolved in 100 ml double distilled water to obtain 20 mg/ml solution.
Rats in experimental groups were intraperitoneally injected with gentamicin sulfate solution at the dose of 140 mg/kg, while the rats in the blank group were intraperitoneally injected with equal volume of normal saline, and the administration was continued for 7 days to make a model.
The animals were randomly divided into blank group; model group; positive drug group (dexamethasone group); B4 gel high, medium, and low dose groups; B4 suppository high, medium, and low dose groups; B4 powder group; 10 animals for each group. Animals in B4 gel groups received the gel by rectum at 0.3 ml/100 g body weight; animals in B4 suppository groups received the suppository by rectum; B4 raw powder group and positive group were given corresponding drugs by gavage according to 10 ml/kg body weight. The model group and the blank group were given the same volume of double distilled water by gavage. The drug was continuously administered for 7 days from the second day of modeling.
Urine proteins were detected by Coomassie brilliant blue method. After isoflurane anesthesia, blood samples were taken from eyeballs of rats. Serum was separated. Total protein (TP), urea nitrogen (BUN), and creatinine (CRE) were detected by automatic biochemical analysis.

[2] = system: cisplatin-induced acute kidney injury in mice; experiment: Cisplatin-induced acute kidney injury in mice: serum indexes and urinary protein; format: in vivo, ICR mice; conditions: for Urinary Protein / BUN / CREA / TP: by gavage, 4 days; for Urinary Protein: one hour after the last administration; for BUN / CREA / TP: serum
Description: After intraperitoneal injection of cisplatin, cisplatin was toxic to different parts of the kidney. It could cause changes in the function and morphology of glomerulus and renal tubules. Cisplatin could cause renal vasoconstriction, reduce renal blood flow and glomerular filtration rate, and thus cause proteinuria, renal function damage and other symptoms. In this study, B4 was administered by different routes (rectum and oral) to observe the preventive and therapeutic effects of B4 on cisplatin-induced ARF in mice.
2.1.2 Reagent: cisplatin, the original solution 5 mg/kg.
as §1
B4 raw powder solution: 1000 mg of B4 raw powder was weighed, ground, and dissolved in 100 ml double distilled water to obtain 10 mg/ml solution.
The model was established by cisplatin at a dosage of […]. The normal group was intraperitoneally injected with normal saline, and the other groups were intraperitoneally injected with cisplatin injection.
The animals were randomly divided into blank group; model group; positive drug group (dexamethasone group); B4 gel high, medium, and low dose groups; B4 suppository high, medium, and low dose groups; B4 raw powder group; 10 animals for each group. Animals in B4 gel groups received the gel by rectum at 0.3 ml/100 g body weight; animals in B4 suppository groups received the suppository by rectum; B4 raw powder group and positive group were given corresponding drugs by gavage according to 20 m/kg body weight. The model group and the blank group were given the same volume of double distilled water by gavage. The drug was continuously administered for 4 days from the day of modeling. Animals were fasted for 16-18 hours before administration on day 4.
One hour after the last administration, urine was collected to measure urine proteins. Blood samples were taken from eyeballs to separate serum. Total protein (TP), urea nitrogen (BUN) and creatinine (Cre) were detected by automatic biochemical analysis.

[3] = gel and suppository by rectum, raw powder oral

Question: For `C=C(C)C1CC[C@]2(C(=O)O[C@@H]3O[C@H](CO[C@@H]4O[C@H](CO)[C@@H](O[C@@H]5O[C@@H](C)[C@H](O)[C@@H](O)[C@H]5O)[C@H](O)[C@H]4O)[C@@H](O)[C@H](O)[C@H]3O)CC[C@]3(C)[C@H](CC[C@@H]4[C@@]5(C)CC[C@H](OC6OC[C@H](O)[C@H](O)[C@H]6O[C@@H]6O[C@@H](C)[C@H](O)[C@@H](O)[C@H]6O)[C@@](C)(CO)[C@@H]5CC[C@]43C)[C@@H]12` (stereo partly shown) [B4 raw powder, Pulsatilla chinensis saponin B4], which “Urinary Protein, 5th day of administration” value ([1]; 200 mg/kg) is on record?
Answer: 4.86 ± 1.22 mg/mL

Question: What about the “Urinary Protein, 6th day of administration” value ([1]; 200 mg/kg) of the same compound?
Answer: 5.18 ± 1.15 mg/mL

Question: What about the “Urinary Protein, 7th day of administration” value ([1]; 200 mg/kg) of the same compound?
Answer: 5.38 ± 0.92 mg/mL

Question: And the “effect on renal function (creatinine and urea nitrogen), conclusion in words” value [1, 3]?
Answer: had a tendency to improve the renal function

Question: What about the BUN ([1]; 200 mg/kg) of the same compound?
Answer: 126.4 mg/dL

Question: What about the CREA ([1]; 200 mg/kg) of the same compound?
Answer: 268.7 ± 56.2 µmol/L

Question: What about the TP ([1]; 200 mg/kg) of the same compound?
Answer: 53.2 ± 4.3 g/L

Question: What about the “Urinary Protein” value ([2]; 400 mg/kg) of the same compound?
Answer: 1.55 mg/mL

Question: And the “effect on renal function, conclusion in words” value [2, 3]?
Answer: no significant difference compared with the model group

Question: What about the BUN ([2]; 400 mg/kg) of the same compound?
Answer: 55.86 mg/dL

Question: What about the CREA ([2]; 400 mg/kg) of the same compound?
Answer: 38.11 ± 9.56 µmol/L

Question: And the TP ([2]; 400 mg/kg)?
Answer: 46.12 ± 2.27 g/L

Question: With `C[C@@H]1C[C@H]2[C@@H]3CCC4=CC(=O)C=C[C@]4(C)[C@@]3(F)[C@@H](O)C[C@]2(C)[C@@]1(O)C(=O)CO` [Dexamethasone, reference compound] as the compound, how does the “Urinary Protein, 5th day of administration” value ([1]; 0.3 mg/kg) read?
Answer: 5.15 ± 0.89 mg/mL

Question: What about the “Urinary Protein, 6th day of administration” value ([1]; 0.3 mg/kg) of the same compound?
Answer: 5.52 ± 1.36 mg/mL

Question: What about the “Urinary Protein, 7th day of administration” value ([1]; 0.3 mg/kg) of the same compound?
Answer: 5.63 ± 0.58 mg/mL

Question: And the BUN ([1]; 0.3 mg/kg)?
Answer: 79.3 ± 33.6 mg/dL

Question: And the CREA ([1]; 0.3 mg/kg)?
Answer: 83.2 ± 31.9 µmol/L

Question: What about the TP ([1]; 0.3 mg/kg) of the same compound?
Answer: 65.7 ± 5.8 g/L

Question: What about the “Urinary Protein” value ([2]; 0.6 mg/kg) of the same compound?
Answer: 1.00 mg/mL

Question: What about the BUN ([2]; 0.6 mg/kg) of the same compound?
Answer: 42.97 mg/dL

Question: And the CREA ([2]; 0.6 mg/kg)?
Answer: 30.10 µmol/L

Question: And the TP ([2]; 0.6 mg/kg)?
Answer: 52.90 g/L
